Like-named read-outs stand apart in the source and are kept apart here.
What was measured:
PC-3 cells = assay: MTT cell viability; format: cell-based, human; settings: PC-3, concentrations above 10 μM, 48 h, versus LNCaP and 22Rv1
Protocol: (§1) The effects of HDHS on cell viability in various PCa cell lines including androgen-dependent LNCaP, androgen-responsive 22Rv1 cells, and androgen-independent PC-3 cells were tested and compared with untransformed fibroblast NIH-3T3 cells. PCa or NIH-3T3 cells (1×10^4 cells) were seeded into 96-well microtiter plates with 10% FBS culture medium. After 24 h, cells were incubated in 10% FBS medium containing different concentrations of HDHS or equivalent amounts of vehicle alone as control for 48 h. Cell viability was then determined by MTT assay, which quantitatively measures the metabolic activity of living cells.

LNCaP cells [1] = assay: MTT cell viability; format: cell-based, human; settings: concentrations above 10 μM, 48 h
Protocol: as §1

22Rv1 cells = assay: MTT cell viability; format: cell-based, human; settings: 22Rv1, concentrations above 10 μM, 48 h
Protocol: as §1

AR = target: T1, AR (Homo sapiens, UniProt P10275, T878A); assay: AR nuclear translocation by confocal immunofluorescence in LNCaP cells; format: cell-based; settings: steroid-deprived, 5 to 10 μM, 1 h
T1 construct: endogenous in cells; host or cells: LNCaP
T1 sequence (P10275 1-920 T878A): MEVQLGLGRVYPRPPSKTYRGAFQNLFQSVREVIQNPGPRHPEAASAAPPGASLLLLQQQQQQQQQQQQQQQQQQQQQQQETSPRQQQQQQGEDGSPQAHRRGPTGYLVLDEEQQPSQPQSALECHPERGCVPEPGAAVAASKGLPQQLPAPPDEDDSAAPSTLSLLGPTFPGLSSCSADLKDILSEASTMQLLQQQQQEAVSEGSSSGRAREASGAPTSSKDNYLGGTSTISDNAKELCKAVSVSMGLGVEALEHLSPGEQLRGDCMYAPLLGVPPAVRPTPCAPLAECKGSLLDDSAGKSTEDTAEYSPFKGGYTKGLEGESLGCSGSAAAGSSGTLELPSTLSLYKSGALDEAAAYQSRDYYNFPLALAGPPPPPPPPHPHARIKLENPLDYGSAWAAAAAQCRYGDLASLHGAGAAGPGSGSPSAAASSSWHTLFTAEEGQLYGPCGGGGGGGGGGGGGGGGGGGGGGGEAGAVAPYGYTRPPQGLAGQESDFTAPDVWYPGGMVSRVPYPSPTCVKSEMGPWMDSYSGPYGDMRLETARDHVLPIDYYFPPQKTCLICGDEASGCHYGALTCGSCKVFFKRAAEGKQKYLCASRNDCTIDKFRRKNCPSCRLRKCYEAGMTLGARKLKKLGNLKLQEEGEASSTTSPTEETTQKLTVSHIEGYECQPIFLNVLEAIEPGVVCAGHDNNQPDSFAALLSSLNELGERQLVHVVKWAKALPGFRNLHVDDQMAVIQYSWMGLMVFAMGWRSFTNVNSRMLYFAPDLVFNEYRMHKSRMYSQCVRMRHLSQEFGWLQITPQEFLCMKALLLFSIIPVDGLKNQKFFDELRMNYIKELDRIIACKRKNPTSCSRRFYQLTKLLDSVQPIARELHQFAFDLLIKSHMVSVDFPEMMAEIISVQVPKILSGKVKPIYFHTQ
Protocol: Specifically, LNCaP cells were grown in medium containing 5% charcoal-dextran stripped FBS on 12-mm coverslips for 48 h and then treated with vehicle or various compound treatments for another 1 h. Cells were fixed with 4% (v/v) paraformaldehyde on ice for 15 min, permeabilized with 0.2% (v/v) Triton X-100/PBS, and then washed with PBS three times. […] The samples were washed again and mounted in mounting medium (Vector, Burlingame, Calif.). The cellular location of AR was visualized by confocal microscopy (LSM 510 META, Carl Zeiss GmbH, Jena, Germany) and analyzed using the manufacturer's software.

LNCaP cells [2] = assay: Cell cycle distribution by propidium iodide flow cytometry; format: cell-based, human; settings: 48 h
Protocol: The cell cycle of treated cells was examined by flow cytometry after cellular staining with propidium iodide. 5×10^5 cells were seeded into 6-well multidishes with 10% FBS culture medium for 48 h. […] Cells were trypsinized thereafter, washed twice with cold PBS, and centrifuged. The pellet was suspended in cold PBS and 1 mL of 70% ethanol at 4° C. overnight, washed twice with cold PBS, and digested with RNase (100 μg/mL final concentration) and stained with propidium iodide (10 μg/mL final concentration) for 30 min and analyzed by flow cytometry (EPICS XL-MCL, Beckman Coulter, Inc., Fullerton, Calif.).

[3] = HDHS levels in plasma and tumors of treated nude mice (HPLC); format: in vivo; settings: 24 h after the last of 24 doses; for concentration at 24 h after the last dose: athymic (nu/nu) nude, mouse, in vivo, read-out: HDHS level in plasma
Protocol: 22Rv1 cells were derived from a castration-relapsed tumor of human PCa origin that represents a clinical limitation for hormonal therapy (Nagabhushan M, et al., Cancer Res 1996;56:3042-6; Sramkoski R M, et al., In Vitro Cell Dev Biol Anim 1999; 35:403-9). The potential of HDHS to inhibit growth of PCa in vivo was tested in athymic nude mice with 22Rv1 tumors. […]. All animal work was done in accordance with the protocol approved by the Institutional Animal Care and Use Committee, Academia Sinica. Aliquots of 1×10^6 22Rv1 cells were suspended in 1:1 PBS mixed with Matrigel (BD Biosciences, San Jose, Calif.) and were subcutaneously inoculated into the right flank of each mouse. Once the tumor grew to palpable size one week after 22Rv1 cells were implanted, mice were stochastically assigned to three groups (n=7) that received vehicle control or HDHS at different dosages (0.5 and 2.5 mg/kg/day), by gavage in 0.2 mL of PBS containing 10% DMSO. Tumors were measured twice per week using calipers and their volumes calculated using a standard formula, as follows: width2×length×0.5. Body weight was measured weekly. Mice received 24 doses, and 24 h after the last dose they were sacrificed to harvest plasma and tumors. A portion of each tumor was snap-frozen in liquid nitrogen and stored at −80° C. until needed for western blot analysis of relevant biomarkers, and the remainder was fixed in 10% formalin overnight.
In order to further understand the dose-effect relationships, the attainable levels of HDHS in plasma and tumors were detected 24 h after the last dose of HDHS regimen in the tested mice. […]. These increases of HDHS concentrations in plasma and tumors were dose-dependent and consistent with the extent of tumor suppression (FIGS. 6A and B).

CC(C)c1cc2c(cc1O)[C@@]1(C)CCCC(C)(C)C1=C(O)C2=O [Compound 2, 6,12-dihydroxyabieta-5,8,11,13-tetraen-7-one]
cell viability (MTT) (PC-3 cells): far less pronounced | cell viability (MTT) (LNCaP cells [1]): strongly reduced cell viability | cell viability (MTT) (22Rv1 cells): strongly reduced cell viability | AR nuclear localization (AR): significant AR accumulation in the nucleus | G0-G1 phase cell population (LNCaP cells [2]; 2.5 μM): 62.6 ± 2.8 % | G2-M phase cell population (LNCaP cells [2]; 2.5 μM): 21.1 ± 2.4 % | S phase cell population (LNCaP cells [2]; 2.5 μM): 11.5 ± 2.1 % | Sub-G1 phase cell population (LNCaP cells [2]; 2.5 μM): 0.8 ± 0.4 % | G0-G1 phase cell population (LNCaP cells [2]; 5 μM): 66.9 ± 2.0 % | G2-M phase cell population (LNCaP cells [2]; 5 μM): 18.7 ± 3.5 % | S phase cell population (LNCaP cells [2]; 5 μM): 8.1 ± 1.8 % | Sub-G1 phase cell population (LNCaP cells [2]; 5 μM): 3.9 ± 0.7 % | G0-G1 phase cell population (LNCaP cells [2]; 10 μM): 45.1 ± 3.1 % | G2-M phase cell population (LNCaP cells [2]; 10 μM): 20.2 ± 2.1 % | S phase cell population (LNCaP cells [2]; 10 μM): 6.8 ± 2.4 % | Sub-G1 phase cell population (LNCaP cells [2]; 10 μM): 24.3 ± 3.1 % | concentration at 24 h after the last dose ([3]; oral 0.5 mg/kg): 450 ± 140 nM | concentration at 24 h after the last dose ([3]; oral 2.5 mg/kg): 1450 ± 300 nM | HDHS level in tumor tissues ([3]; oral 0.5 mg/kg): 98.45 ± 19.80 nmol/g | HDHS level in tumor tissues ([3]; oral 2.5 mg/kg): 154.93 ± 12.97 nmol/g

Reference: patent US8519007B2, “Use certain diterpene compounds in the treatment of androgen receptor-associated diseases” (Academia Sinica, priority 2008, dated 2013)
